Experimental data as given in US20110144160A1, “Antagonists of Prostaglandin D2 Receptors” (Amira Pharmaceuticals, Inc., priority 2008, published 2011).
pIC50: −log10 of the molar value.

Columns and labels:
[1] = target: T1, human DP2 receptor (Homo sapiens, UniProt Q9Y5Y4); experiment: DP2/CRTH2 binding assay ([3H]PGD2 radioligand); details: membranes of HEK293 cells expressing recombinant human DP2, 1 nM [3H]PGD2; read-out: hDP2
T1 construct: expressed in transfected cells
T1 sequence (Q9Y5Y4 1-395): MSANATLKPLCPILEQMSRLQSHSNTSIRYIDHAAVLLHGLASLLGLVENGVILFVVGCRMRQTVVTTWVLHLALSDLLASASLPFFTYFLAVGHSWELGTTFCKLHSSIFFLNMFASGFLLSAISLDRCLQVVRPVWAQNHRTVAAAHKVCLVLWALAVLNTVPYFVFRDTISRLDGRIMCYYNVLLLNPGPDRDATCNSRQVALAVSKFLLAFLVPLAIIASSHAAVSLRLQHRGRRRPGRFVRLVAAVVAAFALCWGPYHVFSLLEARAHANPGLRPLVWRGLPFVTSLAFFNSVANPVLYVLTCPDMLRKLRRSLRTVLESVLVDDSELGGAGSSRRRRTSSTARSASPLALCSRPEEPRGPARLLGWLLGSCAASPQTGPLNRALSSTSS
Summary of the method: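 HEK293 membranes with stable recombinant human DP2, incubated with 1 nM [3H]PGD2 and compound 60 min at room temperature in pH 7.4 HEPES/MnCl2/EDTA buffer, with or without 0.2% human serum albumin.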

[2] = target: T2, human DP1 receptor (Homo sapiens, UniProt Q13258); experiment: DP1 binding assay ([3H]BWA868C radioligand); details: human platelet membranes, 2 nM [3H]BWA868C; read-out: hDP1
T2 construct: tissue Biological Specialty Corporation; host or cells: human platelets, membrane preparation
T2 sequence (Q13258 1-359): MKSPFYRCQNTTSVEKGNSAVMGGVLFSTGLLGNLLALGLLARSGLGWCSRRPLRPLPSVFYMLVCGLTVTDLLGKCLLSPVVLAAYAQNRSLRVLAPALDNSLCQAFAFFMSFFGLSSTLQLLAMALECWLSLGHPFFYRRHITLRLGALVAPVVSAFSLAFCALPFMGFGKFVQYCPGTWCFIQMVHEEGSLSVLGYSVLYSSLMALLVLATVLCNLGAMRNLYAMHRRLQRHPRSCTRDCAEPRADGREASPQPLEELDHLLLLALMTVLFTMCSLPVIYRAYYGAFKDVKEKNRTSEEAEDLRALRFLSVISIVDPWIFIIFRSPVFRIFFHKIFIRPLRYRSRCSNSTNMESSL
Experimental: The ability of a compound to bind to the human DP1 receptor was evaluated via a radioligand membrane binding assay using the DP1 selective synthetic ligand [^3H]BWA868C. Packed human platelets (Biological Specialty Corporation), were resuspended in 6 volumes of Hepes/HBSS buffer (10 mM Hepes, 1 mM DTT in Hanks Balanced Salt Solution (HBSS), lysed and centrifuged at 75,000×g to pellet the membranes. Membranes were resuspended in Hepes/HBSS buffer to approximately 12 mg protein/ml. Membranes (20 μg protein/well) are incubated in 96-well plates with 2 nM [^3H]BWA868C and test compound in Assay Buffer (50 mM Hepes, 10 mM MnCl2, 1 mM EDTA, plus or minus 0.2% human serum albumin, pH 7.4) for 60 minutes at room temperature. The reactions are terminated by rapid filtration through Whatman GF/C glass fibre filter plates. The filter plates were pre-soaked in 0.33% polethylenimine for 30 minutes at room temperature then washed in Wash Buffer (50 mM Hepes, 0.5 M NaCl pH 7.4) prior to harvesting. After harvesting, the filter plates are washed 3 times with 1 ml cold Wash Buffer then dried. Scintillant is then added to the plates and the radioactivity retained on the filters is determined on a Packard TopCount (Perkin Elmer). Specific binding is determined as total radioactive binding minus non-specific binding in the presence of 10 μM BW A868C. IC50s were determined using GraphPad prism analysis of drug titration curves.

Row | Structure (SMILES) | pIC50 [1] | pIC50 [2]
1 | CC(C)(C)C(=O)Nc1ccc(Oc2cc(CC(=O)O)ccc2O)c(C[S+]([O-])C(C)(C)C)c1 (stereo not drawn) [Compound 76, {3-[4-(2,2-Dimethyl-propionylamino)-2-(2-methyl-propane-2-sulfinylmethyl)-phenoxy]-4-hydroxy-phenyl}-acetic acid] | > 6.52 | > 6.52
2 | COc1ccc(CC(=O)O[C@@H]2O[C@@H](C(=O)O)[C@H](O)[C@@H](O)[C@@H]2O)cc1Oc1ccc(NC(=O)C(C)(C)C)cc1CSC(C)(C)C [Compound 77, (2R,3R,4R,5S,6S)-6-(2-{3-[2-tert-Butylsulfanylmethyl-4-(2,2-dimethyl-propionylamino)-phenoxy]-4-methoxy-phenyl}-acetoxy)-3,4,5-trihydroxy-tetrahydro-pyran-2-carboxylic acid] | > 6.52 | > 6.52
3 | O=C(O)CCn1c2c(c3ccccc31)C[C@H](NS(=O)(=O)c1ccc(F)cc1)CC2 [Ramatroban, reference compound] | 6.00 to 6.52 | < 6.00
